# Test results: patent publication US7807630B2, “Targeting of Notch3 receptor function for cancer therapy” (Vanderbilt University, priority 2007, dated 2010)
# “Also recorded” adds a separate entry of the source. Where no end group is shown, it is not given here.
# Experiments:
# HCC2429 cells [1] = assay: Sensitivity to the EGFR tyrosine kinase inhibitor AG1478 with and without Notch3 inhibition (DN construct); format: cell-based, human
# From the text: (§1) FIGS. 11A-B. Notch3 modulates the EGF pathway and increases sensitivity to an EGFr inhibitor. (FIG. 11A) In HCC2429, inhibition of the Notch3 pathway increases sensitivity to AG1478 nearly 40-fold. […] (FIG. 11B) A similar observation is made in H460 when the inventors combine AG1478 with L-685,458, a γ-secretase inhibitor, further supporting the hypothesis that EGF cooperates with the Notch pathway in oncogenesis.
# (§2) EGFr Inhibitors Enhance the Anti-proliferation Effect of Notch3 Inhibition. […] Based on existing literature and their observations, the inventors hypothesized that Notch3 acts synergistically with the EGFR pathway in the promotion and the survival of lung cancer cells and that combining inhibitors of both pathways will have synergistic therapeutic value. To test this hypothesis, the inventors examined whether inhibiting the Notch3 pathway increases tumor inhibition when lung cancer cells are treated with an EGFR tyrosine kinase inhibitor, AG1478. […] Synergism can also be observed when the γ-secretase inhibitor L-685,458 is added to AG1478 (FIG. 11B). […] From a therapeutic standpoint, Notch3 is a good target for therapeutic intervention both alone and in combination with growth factor receptor inhibitors.
# H460 = assay: Sensitivity to AG1478 with and without Notch3 inhibition (DN construct or γ-secretase inhibitor); format: cell-based, human
# From the text: as §1, §2
# HCC2429 xenografts = assay: MRK003 treatment of subcutaneous HCC2429 xenografts; format: in vivo, mice
# Description: (FIG. 8A) Xenografts injected with HCC2429 were treated with MRK003 once the tumors became palpable. After 2 weeks of treatment, the inventors observed about a 50% reduction in tumor size. […] Histological examination of resected tumors from xenografts at the end of treatment.
# To assess the effect of pharmacologically inhibiting Notch activation in vivo, the inventors treated subcutaneous xenografts with MRK003, a γ-secretase inhibitor from Merck, Inc. & Co. Based on the manufacturer's recommended dose, the mice were treated with 100 mg/kg orally for 3 consecutives days per week once the tumors were palpable. At the end of a 2-week treatment, the animals were then euthanized, and the tumors were harvested.
# HCC2429 cells [2] = assay: Cell survival with MRK003 in HCC2429 clones expressing Notch3 siRNA; format: cell-based, human; settings: HCC2429 clones with loss of Notch3 (siRNA-N3)
# Description: HCC2429 cells are sensitive to GSI, and the sensitivity increases in low serum, similarly to that observed with clones expressing the DN construct. Tumor cells treated with DMSO alone had no change in cell viability. (FIG. 7B) Inhibition of S3 proteolytic processing results in the decrease of Notch3 intracellular domain (N3ICD) and accumulation of S2 product (N3ΔE) after 3 hours. (FIG. 7C) In this experiment, HCC2429 was stably transfected with plasmid vector expressing Notch3 siRNA.
# A γ-Secretase Inhibitor Reduces Proliferation in Lung Cancer Cells. Proteolytic processing of Notch receptors is required for activation. As previously described, three proteolytic cleavage sites are involved in enabling Notch signaling. In the final step, the membrane-associated Notch fragment is cleaved within its transmembrane domain by a γ-secretase-containing protein complex. Mammalian presenilins (PS-1 and PS-2) are polytopic transmembrane proteins that appear to function as aspartyl proteases within a multiprotein, γ-secretase complex (Wolfe and Kopan, 2004). Presenilins provide the active site of the proteolytic activity. This last cleavage releases the Notch intracellular domain, initiating CBF-1-mediated signaling. […]
# [3] = tested on: HCC2429 lung cancer cell line; assay: Soft-agar colony assay, MRK003 with AG1478; format: cell-based, human
# From the text: FIGS. 12A-B. In HCC2429 lung cancer cell line, Notch inhibitor MRK003 enhances the effect of EGFR inhibitor AG1478 on colony formation in soft agar. […] (FIG. 12B) Graph depicts the quantitative decrease in colony formation.
# as §2
# [4] = Peptide screen for apoptosis by Annexin V staining using an FMAT system; format: cell-based; settings: FMAT screen of 155 peptides, quadruplicate
# Description: FIG. 13. […] Each of 155 different peptides were assayed in quadruplicate, and only those peptides that produced a significant increase of fluorescence signal in all 4 wells were considered potentially positive or capable of inducing apoptosis. The bar graphs here reflect fluorescence counts. Sequences N102: CATAV, N103: CFHGAT, N105: CVSNP, N132: CLNGGS.
# (§3) Each of 155 different peptides were assayed in quadruplicate, and only those peptides that produced a significant increase of fluorescence signal in all 4 wells were considered potentially positive or capable of inducing apoptosis. The bar graphs here reflect fluorescence counts. […] The peptides were then immunoprecipitated from cell lysate with streptavidin beads and immunoblotted with anti-HA antibody.
# HCC2429 = assay: Apoptosis by annexin V labelling and flow cytometry after Notch3 peptide treatment; format: cell-based, human; settings: HCC2429, compared to control
# Description: (FIG. 14A) HCC2429 was treated with Notch3 peptides N16, N17, N102, N103, N132. […] MRK003-treated cell is used as positive control. After treatment, cells were labeled with annexin V and detected using flow cytometry. […] MRK003-treated cells were used as positive control. Sequences N16: CFNTLGGHS, N17: CVCVNGWTGES, N102: CATAV, N103: CFHGAT, N132: CLNGGS. […]
# [5] = tested on: Notch3-dependent gene Hey1; assay: Hey1 transcription by real-time RT-PCR after peptide treatment; format: cell-based, human
# Jagged1 = molecular target: T1, Jagged1 (Homo sapiens, UniProt P78504); assay: Streptavidin pull-down of peptides from Jagged1-HA transfected HEK cells, anti-HA immunoblot; format: binding; settings: HEK cells transfected with Jagged1-HA, anti-HA blot
# T1 construct: expressed in transfected cells; host or cells: HEK cells
# T1 sequence (P78504 34-1218, species assumed): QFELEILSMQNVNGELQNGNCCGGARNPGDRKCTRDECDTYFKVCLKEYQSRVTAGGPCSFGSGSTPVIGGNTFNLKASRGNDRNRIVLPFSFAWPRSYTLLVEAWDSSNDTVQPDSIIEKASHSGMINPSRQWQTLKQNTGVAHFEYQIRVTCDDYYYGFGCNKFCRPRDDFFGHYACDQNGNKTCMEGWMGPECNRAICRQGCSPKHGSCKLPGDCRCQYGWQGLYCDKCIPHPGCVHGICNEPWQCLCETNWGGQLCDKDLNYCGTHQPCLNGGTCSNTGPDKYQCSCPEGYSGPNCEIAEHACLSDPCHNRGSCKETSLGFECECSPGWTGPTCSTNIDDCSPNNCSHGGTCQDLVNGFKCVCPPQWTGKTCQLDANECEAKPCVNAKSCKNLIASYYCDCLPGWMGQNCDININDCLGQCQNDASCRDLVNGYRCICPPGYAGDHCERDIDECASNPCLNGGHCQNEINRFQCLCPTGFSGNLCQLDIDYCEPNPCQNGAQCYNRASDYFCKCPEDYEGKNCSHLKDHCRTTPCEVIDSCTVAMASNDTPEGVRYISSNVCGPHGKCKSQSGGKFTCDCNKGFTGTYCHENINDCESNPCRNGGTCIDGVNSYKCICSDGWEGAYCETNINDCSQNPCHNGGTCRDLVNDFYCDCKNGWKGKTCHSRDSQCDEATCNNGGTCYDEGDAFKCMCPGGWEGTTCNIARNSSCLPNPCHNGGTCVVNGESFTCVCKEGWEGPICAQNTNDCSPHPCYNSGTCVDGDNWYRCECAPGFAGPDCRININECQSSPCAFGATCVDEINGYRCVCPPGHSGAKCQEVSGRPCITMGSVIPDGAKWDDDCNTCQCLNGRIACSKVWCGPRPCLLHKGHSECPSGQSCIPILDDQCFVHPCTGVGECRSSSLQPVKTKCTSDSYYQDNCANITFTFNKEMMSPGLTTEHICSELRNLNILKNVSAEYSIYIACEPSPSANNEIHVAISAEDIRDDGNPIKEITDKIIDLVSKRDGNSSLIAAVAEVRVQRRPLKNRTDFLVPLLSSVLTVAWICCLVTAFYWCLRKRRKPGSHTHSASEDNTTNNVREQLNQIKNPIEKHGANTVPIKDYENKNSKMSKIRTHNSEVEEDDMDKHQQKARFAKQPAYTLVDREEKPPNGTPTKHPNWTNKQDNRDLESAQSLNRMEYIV
# Description: FIG. 15. […] HEK cells were transfected with Jagged1-HA and treated with Notch3 peptides. The peptides were then immunoprecipitated from cell lysate with streptavidin beads and immunoblotted with anti-HA antibody. No: no input; C: control peptide. Sequences N16: CFNTLGGHS, N17: CVCVNGWTGES, N102: CATAV, N103: CFHGAT, N132: CLNGGS.
# as §3
# [6] = Apoptosis (percentage of annexin V positive cells) after Fc-fusion protein treatment; format: cell-based; settings: 40 hrs treatment, compared to control and Fc control
# Description: […] […] Apoptosis was determined by percentage of annexin V positive cells. Sequences N16: CFNTLGGHS, N17: CVCVNGWTGES, N132: CLNGGS.
molecule,measurement,setting,value
COc1cc2ncnc(Nc3cccc(Cl)c3)c2cc1OC [AG1478],increase in sensitivity to AG1478 upon inhibition of the Notch3 pathway,"HCC2429 cells [1]; HCC2429, DN construct versus control",40 fold
same,IC50,"HCC2429 cells [1]; HCC2429, EGF-supplemented media, without Notch3 inhibition",8.3 µM
same,IC50,"HCC2429 cells [1]; HCC2429 clones transfected with the DN (dominant-negative Notch3) construct, EGF-supplemented media",0.2 µM
same,IC50,"H460; H460, without Notch3 inhibition",23.8 µM
same,reduction of cancer cell survival upon inhibition of the Notch3 pathway,H460; H460 treated with AG1478,approximately two-fold
same,IC50,H460; H460 with inhibition of the Notch3 pathway,12.1 µM
"CC(C)C[C@H](NC(=O)[C@H](Cc1ccccc1)C[C@@H](O)[C@H](Cc1ccccc1)NC(=O)OC(C)(C)C)C(=O)N[C@@H](Cc1ccccc1)C(N)=O [L-685,458]","combined effect of L-685,458 added to AG1478",H460; H460 (FIG. 11B),Synergism
O=S1(=O)N[C@@]2(CN1CC(F)(F)F)[C@@H]1CC[C@H]2Cc2ccc(/C=C/CN3CCC(C(F)(F)F)CC3)cc2C1 [MRK003],tumor size,"HCC2429 xenografts; 100 mg/kg orally, 3 consecutive days per week, end of 2-week treatment",reduction of tumor size
same,reduction in tumor size,"HCC2429 xenografts; HCC2429 xenografts, 100 mg/kg orally, 3 consecutive days per week, after 2 weeks of treatment",~50%
same,histological examination of resected tumors,"HCC2429 xenografts; end of treatment, compared to control",Marked necrosis
same,activated Notch3 (N3ICD) in tumor,HCC2429 xenografts; xenograft tumors treated with MRK003,reduction in activated Notch3 (N3ICD); also recorded: Loss of activated Notch3 (N3ICD)
same,cell survival when treated with MRK003,HCC2429 cells [2],no loss in cell survival
same,colony formation in soft agar,"[3]; HCC2429, MRK003 alone",decreases colony formation
same,"colony formation in soft agar, combination with EGFR inhibitor AG1478","[3]; HCC2429, MRK003 combined with AG1478",additive effects; also recorded: enhances the effect of AG1478 on growth
"CATAV [N102, Notch3 peptide]",apoptosis by Annexin V staining (fluorescence counts),[4],induce apoptosis
same,"apoptosis (annexin V, flow cytometry)",HCC2429,Induction of apoptosis
same,transcription of Notch3-dependent gene Hey1,[5],reduced transcription of Notch3-dependent gene Hey1
same,binding to ligand Jagged1,Jagged1,binding to ligand Jagged1
"CFHGAT [N103, Notch3 peptide]",apoptosis by Annexin V staining (fluorescence counts),[4],induce apoptosis
same,"apoptosis (annexin V, flow cytometry)",HCC2429,Induction of apoptosis
same,transcription of Notch3-dependent gene Hey1,[5],reduced transcription of Notch3-dependent gene Hey1
same,binding to ligand Jagged1,Jagged1,binding to ligand Jagged1
"CFNTLGGHS [N16, Notch3 peptide]","apoptosis (annexin V, flow cytometry)",HCC2429,Induction of apoptosis
same,transcription of Notch3-dependent gene Hey1,[5],reduced transcription of Notch3-dependent gene Hey1
same,binding to ligand Jagged1,Jagged1,binding to ligand Jagged1
"CLNGGS [N132, Notch3 peptide]",apoptosis by Annexin V staining (fluorescence counts),[4],induce apoptosis
same,"apoptosis (annexin V, flow cytometry)",HCC2429,Induction of apoptosis
same,transcription of Notch3-dependent gene Hey1,[5],reduced transcription of Notch3-dependent gene Hey1
same,binding to ligand Jagged1,Jagged1,binding to ligand Jagged1
"CVCVNGWTGES [N17, Notch3 peptide]","apoptosis (annexin V, flow cytometry)",HCC2429,Induction of apoptosis; also recorded: highest apoptotic activity
same,transcription of Notch3-dependent gene Hey1,[5],reduced transcription of Notch3-dependent gene Hey1; also recorded: best reduction in Hey1 transcription
same,binding to ligand Jagged1,Jagged1,binding to ligand Jagged1
"CVSNP [N105, Notch3 peptide]",apoptosis by Annexin V staining (fluorescence counts),[4],induce apoptosis
N16-17-Fc: Purified recombinant Fc-fusion Notch3 protein with N16-17 sequences (CFNTLGGHSCVCVNGWTGES; cysteine pairing not given here; also: Fc fusion (dimerising Fc left off)),apoptosis (percentage of annexin V positive cells),[6],induces apoptosis
